Test results: ChEMBL document CHEMBL6134830, “Naturally inspired chimeric quinolone derivatives to reverse bacterial drug resistance” (Eur J Med Chem, 2025)
Converted amounts (≈) assume the structure as drawn.

Test system: Staphylococcus aureus
Assay: Antimicrobial activity against Staphylococcus aureus ATCC 25923 assessed as inhibition of bacterial growth measured after 20 hrs by CLSI protocol based Muller Hinton broth assay
Format: functional

SMILES | MIC
N[C@@H](Cc1c[nH]cn1)C(=O)N1CCN(c2cc3c(cc2F)c(=O)c(C(=O)O)cn3C2CC2)CC1 | ≥ 12.5 µg/mL
O=C(CC12CC3CC(CC(C3)C1)C2)N[C@@H](Cc1c[nH]cn1)C(=O)N1CCN(c2cc3c(cc2F)c(=O)c(C(=O)O)cn3C2CC2)CC1 | 6.25 µg/mL (≈ 9.69 µM)
CCCCCCCCCNC(=O)[C@H](CCCCN)NC(=O)c1ccc(C(=O)N2CCN(c3cc4c(cc3F)c(=O)c(C(=O)O)cn4C3CC3)CC2)cc1 | 6.25 µg/mL (≈ 8.53 µM)
CCCCCNC(=O)[C@H](CCCCN)NC(=O)c1ccc(C(=O)N2CCN(c3cc4c(cc3F)c(=O)c(C(=O)O)cn4C3CC3)CC2)cc1 | 25 µg/mL (≈ 36.9 µM)
CCCCCCCCNC(=O)[C@H](CCCCN)NC(=O)[C@H](CCCCN)NC(=O)[C@H](CCCCN)NC(=O)c1ccc(C(=O)N2CCN(c3cc4c(cc3F)c(=O)c(C(=O)O)cn4C3CC3)CC2)cc1 | 3.12 µg/mL (≈ 3.2 µM)
CCCCCCCCCCCCNC(=O)[C@H](CCCCN)NC(=O)[C@H](CCCCN)NC(=O)c1ccc(C(=O)N2CCN(c3cc4c(cc3F)c(=O)c(C(=O)O)cn4C3CC3)CC2)cc1 | 25 µg/mL (≈ 27.7 µM)
CCCCCCCCCCCC(=O)N[C@@H](CCCNC(=N)N)C(=O)N1CCN(c2cc3c(cc2F)c(=O)c(C(=O)O)cn3C2CC2)CC1 | 6.25 µg/mL (≈ 9.33 µM)
CCCCCCCCCCCCCCNC(=O)[C@H](CCCCN)NC(=O)c1ccc(C(=O)N2CCN(c3cc4c(cc3F)c(=O)c(C(=O)O)cn4C3CC3)CC2)cc1 | 25 µg/mL (≈ 31.1 µM)
NCCCC[C@H](NC(=O)c1ccc(C(=O)N2CCN(c3cc4c(cc3F)c(=O)c(C(=O)O)cn4C3CC3)CC2)cc1)C(=O)NCc1ccccc1 | 25 µg/mL (≈ 35.9 µM)
CCCCCCCCCNC(=O)[C@H](CCCNC(=N)N)NC(=O)[C@H](CCCCN)NC(=O)[C@H](CCCCN)NC(=O)c1ccc(C(=O)N2CCN(c3cc4c(cc3F)c(=O)c(C(=O)O)cn4C3CC3)CC2)cc1 | 3.12 µg/mL (≈ 3.07 µM)
NCCCC[C@H](NC(=O)c1ccc(C(=O)N2CCN(c3cc4c(cc3F)c(=O)c(C(=O)O)cn4C3CC3)CC2)cc1)C(=O)NCc1ccccc1Cl | 25 µg/mL (≈ 34.2 µM)
CCCCCCCCCCCCCCCCNC(=O)[C@H](CCCCN)NC(=O)[C@H](CCCCN)NC(=O)[C@H](CCCCN)NC(=O)c1ccc(C(=O)N2CCN(c3cc4c(cc3F)c(=O)c(C(=O)O)cn4C3CC3)CC2)cc1 | > 50 µg/mL
CCCCCCCCCNC(=O)[C@H](CCCCN)NC(=O)[C@H](CCCCN)NC(=O)c1ccc(C(=O)N2CCN(c3cc4c(cc3F)c(=O)c(C(=O)O)cn4C3CC3)CC2)cc1 | 6.25 µg/mL (≈ 7.26 µM)
CCCCCCCCCCNC(=O)[C@H](CCCCN)NC(=O)[C@H](CCCCN)NC(=O)[C@H](CCCCN)NC(=O)c1ccc(C(=O)N2CCN(c3cc4c(cc3F)c(=O)c(C(=O)O)cn4C3CC3)CC2)cc1 | 3.12 µg/mL (≈ 3.11 µM)
CCCCCCCCCCCCCCCCNC(=O)[C@H](CCCCN)NC(=O)c1ccc(C(=O)N2CCN(c3cc4c(cc3F)c(=O)c(C(=O)O)cn4C3CC3)CC2)cc1 | > 100 µg/mL
CCCCCCCCCNC(=O)[C@H](CCCNC(=N)N)NC(=O)[C@H](CCCNC(=N)N)NC(=O)[C@H](CCCNC(=N)N)NC(=O)c1ccc(C(=O)N2CCN(c3cc4c(cc3F)c(=O)c(C(=O)O)cn4C3CC3)CC2)cc1 | > 50 µg/mL
NCCCC[C@H](NC(=O)c1ccc(C(=O)N2CCN(c3cc4c(cc3F)c(=O)c(C(=O)O)cn4C3CC3)CC2)cc1)C(=O)NCc1c(Cl)cccc1Cl | 12.5 µg/mL (≈ 16.3 µM)
CCCCCCCCCCCC(=O)N[C@@H](Cc1c[nH]cn1)C(=O)N1CCN(c2cc3c(cc2F)c(=O)c(C(=O)O)cn3C2CC2)CC1 | 6.25 µg/mL (≈ 9.6 µM)
CCCCCCCCCC(=O)N[C@@H](CCCCN)C(=O)N1CCN(c2cc3c(cc2F)c(=O)c(C(=O)O)cn3C2CC2)CC1 | 6.25 µg/mL (≈ 10.2 µM)
CCCCCCCCCCCCNC(=O)[C@H](CCCCN)NC(=O)[C@H](CCCCN)NC(=O)[C@H](CCCCN)NC(=O)c1ccc(C(=O)N2CCN(c3cc4c(cc3F)c(=O)c(C(=O)O)cn4C3CC3)CC2)cc1 | 6.25 µg/mL (≈ 6.06 µM)
CCCCCCNC(=O)[C@H](CCCCN)NC(=O)c1ccc(C(=O)N2CCN(c3cc4c(cc3F)c(=O)c(C(=O)O)cn4C3CC3)CC2)cc1 | 25 µg/mL (≈ 36.2 µM)
